Reference: article PMC7617869, “Molecular glues that inhibit deubiquitylase activity and inflammatory signaling” (Nature Structural & Molecular Biology, 2025)
Where “and” joins values, the source holds several entries; their conditions need not be identical. Equal entries are not always repeated.

What was measured:
[1] = target: T1, BRISC (FL) / BRISCΔNΔC (Homo sapiens, UniProt P46736+Q15018+Q9NXR7); assay: Mass photometry of BRISC dimer formation; conditions: for Dimer fraction: 50 nM BRISCΔNΔC
T1 construct: BRISCΔNΔC (MERIT40ΔN, Abraxas 2ΔC); made in house; host or cells: Spodoptera frugiperda Sf9 insect cells (MultiBac)
Method: Immediately before mass photometry measurement, the BRISC–inhibitor mix was diluted in 25 mM HEPES pH 7.5, 150 mM NaCl and 1 mM TCEP to 10 nM BRISC ([…]). Then, 12 μl of the diluted sample was used for the final mass photometry measurement, following autofocus stabilization. […] Next, 0.5 μl of inhibitor was mixed with 19.5 μl of 50 nM BRISCΔNΔC (2.5% v/v DMSO) and incubated at room temperature for 15 min. The BRISC–inhibitor mix was used directly for mass photometry measurement using buffer-free autofocus stabilization.
Microscope coverslips were prepared according to an established protocol. Experiments were performed using a OneMP mass photometer (Refeyn). Videos were recorded for 60 s using AcquireMP (Refeyn) and processed using DiscoverMP (Refeyn). Mass photometry image processing was previously described. Briefly, contrast-to-mass (C2M) calibration was performed using protein standards (66–669 kDa) diluted in buffer (25 mM HEPES pH 7.5, 150 mM NaCl and 1 mM TCEP). […] The mass distribution from each run was in the form of a histogram, where the count refers to each landing event and a Gaussian sum is fitted to the data. The relative amount of each species was calculated as the area of each Gaussian, where σ refers to the s.d. of the fitted Gaussian. The dimer fraction refers to the percentage of the total counts corresponding to the 564-kDa BRISCΔNΔC dimer complex. Curves and half-maximal effective concentration values were fitted and calculated using the GraphPad Prism (version 9.0) built-in dose–response equation for concentration of agonist versus response (variable slope).

[2] = target: T2, ARISC (Homo sapiens, UniProt P46736+Q6UWZ7+Q9NXR7); assay: ARISC IQF DUB activity assay; format: biochemical; conditions: for Normalised V0: ARISC
T2 construct: full-length BRISC (FL), ARISC (FL); made in house; host or cells: Spodoptera frugiperda (Sf9) insect cells, MultiBac
Method: IQF assays were performed in DUB reaction buffer containing 50 mM HEPES–NaOH pH 7.0, 100 mM NaCl, 0.1 mg ml^−1 BSA, 1 mM DTT and 0.03% v/v Brij-35. […] The final concentration of BRISC WT, all BRISC mutants, HsBRISCΔLoop, MmBRISC and DrBRISCΔNΔC was 1 nM. Other enzymes were tested at the following concentrations: 5 nM ARISC (FL), 10 nM CfBRISCΔNΔC, 250 nM AMSH* (ref. [43]), 500 nM USP2 and 1 μM trypsin (Sigma, 9002-07-7). For Michaelis–Menten experiments, 1 nM BRISC with 0–1 μM IQF K63-linked diubiquitin substrate was used. Michaelis–Menten analyses and Lineweaver–Burk plots were calculated using GraphPad Prism (version 9.0).
To assess enzymatic activity, BRISC complexes were diluted to concentrations between 1 nM and 50 nM. […] Then, 20-μl enzyme reactions were carried out in 384-well black flat-bottom low-flange plates (Corning, 35373). DUB activity was measured using IQF K63-linked diubiquitin (LifeSensors, DU6303) at 50 nM. Cleaved diubiquitin was monitored by measuring fluorescence intensity (excitation, 544 nm; emission, 575 nm; dichroic mirror, 560 nm). Fluorescence intensity was measured every minute for 30 min at 30 °C. Fluorescence intensity units were plotted against time to generate a linear reaction progress curve, where the initial velocity (V0) corresponds to the gradient of the curve (typically achieved within 15 min). IC50 values were calculated using the GraphPad Prism (version 9.0) built-in dose–response equation for inhibitor concentration versus response (variable slope).

[3] = target: T3, BRISC (FL) (Homo sapiens, UniProt P46736+Q15018+Q9NXR7); assay: Native MS of BRISC with inhibitor; conditions: 10 μM BRISC, 1 mM inhibitor
T3 construct: full-length BRISC (FL), ARISC (FL); made in house; host or cells: Spodoptera frugiperda Sf9 insect cells (MultiBac)
Method: Samples were buffer-exchanged into 500 mM ammonium acetate using Zeba Spin (7-kDa molecular weight cutoff) desalting columns (Thermo Fisher Scientific). Samples were analyzed by nanoelectrospray ionization MS using a quadrupole orbitrap MS (Q-Exactive UHMR, Thermo Fisher Scientific) using gold–palladium-coated nanospray tips prepared in-house. The MS instrument was operated in positive ion mode using a capillary voltage of 1.5 kV, capillary temperature of 250 °C and S-lens radiofrequency of 200 V. In-source trapping was used with a desolvation voltage of −200 V for 4 μs. Extended trapping was not used. The quadrupole mass range was 2,000–15,000 m/z. Nitrogen gas was used in the higher-energy collisional dissociation cell with a trap gas pressure setting of 5. Orbitrap resolution was 6,250 and detector m/z optimization was low. Five microscans were averaged and an automatic gain control target of 2 × 10^5 was used. Mass calibration was performed by a separate injection of sodium iodide at a concentration of 2 μg μl^−1. Data processing was performed using QualBrowser (version 4.2.28.14) and deconvoluted using UniDec[82].

[4] = target: T4, ARISC (FL) (Homo sapiens, UniProt P46736+Q6UWZ7+Q9NXR7); assay: In-gel deubiquitylation assay, TAMRA-labeled K63-tetraubiquitin, ARISC; format: biochemical; conditions: 10 μM or 100 μM inhibitor
T4 construct: full-length BRISC (FL), ARISC (FL); made in house; host or cells: Spodoptera frugiperda Sf9 insect cells (MultiBac)
Method: The inhibitor capzimin (Merck) was diluted in 1 mM DTT and incubated for 30 min at room temperature to reduce disulfide bonds required for inhibitor activity. […] DUBs were incubated with 750 nM TAMRA-labeled K63-tetraubiquitin (LifeSensors, SI6304T) for 10 min at 30 °C. Reactions were quenched by adding 2.5 μl of 4× SDS–PAGE loading dye (240 mM Tris-HCl pH 6.8, 40% v/v glycerol, 8% w/v SDS, 0.04% w/v bromophenol blue and 5% v/v β-mercaptoethanol). The samples were resolved on 4–12% NuPAGE Bis–Tris gels (Thermo Fisher Scientific). Gels were scanned using an iBright FL 1500 (Thermo Fisher Scientific) (excitation, 515–545 nm; emission, 568–617 nm; exposure, 500 ms).

## O=C(NC1C2CNCC21)c1nn(C(=O)c2c(Cl)cccc2Cl)cc1NC(=O)c1c(Cl)cccc1Cl (stereo not drawn) [FX-171-C]
[1]
  dimer formation with increasing inhibitor concentration (mass photometry): dose-dependent increase in dimer formation
[1]; [Inhibitor (μM)] 2500
  Dimer fraction: 0.36 and 0.38 and 0.35
[1]; [Inhibitor (μM)] 10000
  Dimer fraction: 0.31 and 0.43 and 0.4
[2]; Fig. 1g, FX-171-C 0.02 μM
  Normalised V0: 1.1225 and 0.966 and 1.021
[2]; Fig. 1g, FX-171-C 0.0399999 μM
  Normalised V0: 1.087 and 0.9846 and 0.8911
[2]; Fig. 1g, FX-171-C 0.0599997 μM
  Normalised V0: 1.028 and 0.9352 and 0.9674
[2]; Fig. 1g, FX-171-C 0.0799994 μM
  Normalised V0: 1.023 and 0.9476 and 0.8942
[2]; Fig. 1g, FX-171-C 0.119998 μM
  Normalised V0: 0.9409 and 0.9459 and 1.0338
[2]; Fig. 1g, FX-171-C 0.199996 μM
  Normalised V0: 1.019 and 0.9437 and 0.9099
[2]; Fig. 1g, FX-171-C 0.799936 μM
  Normalised V0: 0.9597 and 0.9609 and 1.054
[2]; Fig. 1g, FX-171-C 1.25984 μM
  Normalised V0: 0.9789 and 0.9339 and 0.958
[2]; Fig. 1g, FX-171-C 1.9996 μM
  Normalised V0: 1.042 and 0.9796 and 1.015
[2]; Fig. 1g, FX-171-C 3.159 μM
  Normalised V0: 0.8585 and 0.91 and 0.9812
[2]; Fig. 1g, FX-171-C 5.19739 μM
  Normalised V0: 0.9682 and 0.9452 and 1.064
[2]; Fig. 1g, FX-171-C 7.99364 μM
  Normalised V0: 0.9509 and 0.8953 and 0.9841
[2]; Fig. 1g, FX-171-C 12.7839 μM
  Normalised V0: 1.013 and 0.9875 and 0.9597
[2]; Fig. 1g, FX-171-C 19.96 μM
  Normalised V0: 0.9552 and 0.8845 and 0.9378
[2]; Fig. 1g, FX-171-C 31.4999 μM
  Normalised V0: 0.9912 and 0.9889 and 0.9686
[2]; Fig. 1g, FX-171-C 50.147 μM
  Normalised V0: 0.9345 and 0.8543 and 0.967
[2]; Fig. 1g, FX-171-C 79.7601 μM
  Normalised V0: 0.9819 and 0.9178 and 0.8968
[2]; Fig. 1g, FX-171-C 125.99 μM
  Normalised V0: 0.9989 and 0.9716 and 0.9683
[2]; Fig. 1g, FX-171-C 199.922 μM
  Normalised V0: 0.744 and 0.5764 and 0.798
[3]
  BRISC dimers detected by native MS: BRISC dimers with 4:4:4:4 stoichiometry were detected
[4]
  inhibition of ARISC activity against tetraubiquitin: did not inhibit

## O=C(NC1CCNCC1)c1nn(C(=O)c2c(Cl)cccc2Cl)cc1NC(=O)c1c(Cl)cccc1Cl [JMS-175-2]
[1]
  dimer formation with increasing inhibitor concentration (mass photometry): dose-dependent increase in dimer formation
[1]; [Inhibitor (μM)] 5000
  Dimer fraction: 0.32 and 0.27 and 0.22
[1]; [Inhibitor (μM)] 10000
  Dimer fraction: 0.35 and 0.32 and 0.21
[2]
  inhibition of ARISC: did not inhibit
[2]; Fig. 1e, JMS-175-2 0.02 μM
  Normalised V0: 0.8556 and 0.9425 and 1.0233
[2]; Fig. 1e, JMS-175-2 0.0399999 μM
  Normalised V0: 1.026 and 1.067 and 1.046
[2]; Fig. 1e, JMS-175-2 0.0599997 μM
  Normalised V0: 0.904 and 0.9422 and 0.9811
[2]; Fig. 1e, JMS-175-2 0.0799994 μM
  Normalised V0: 0.9323 and 0.9821 and 1.136
[2]; Fig. 1e, JMS-175-2 0.119998 μM
  Normalised V0: 0.8786 and 0.8823 and 0.8932
[2]; Fig. 1e, JMS-175-2 0.199996 μM
  Normalised V0: 0.9071 and 0.9585 and 0.9413
[2]; Fig. 1e, JMS-175-2 0.499975 μM
  Normalised V0: 0.8879 and 0.8767 and 0.9696
[2]; Fig. 1e, JMS-175-2 0.799936 μM
  Normalised V0: 0.7555 and 0.9585 and 0.9201
[2]; Fig. 1e, JMS-175-2 1.25984 μM
  Normalised V0: 0.8739 and 0.9751 and 0.9993
[2]; Fig. 1e, JMS-175-2 1.9996 μM
  Normalised V0: 0.8524 and 0.9491 and 1.046
[2]; Fig. 1e, JMS-175-2 3.159 μM
  Normalised V0: 0.8187 and 0.9789 and 0.9215
[2]; Fig. 1e, JMS-175-2 5.19739 μM
  Normalised V0: 0.8621 and 0.9152 and 0.9509
[2]; Fig. 1e, JMS-175-2 7.99364 μM
  Normalised V0: 0.8584 and 0.954 and 0.9288
[2]; Fig. 1e, JMS-175-2 12.7839 μM
  Normalised V0: 0.8845 and 0.9334 and 1.056
[2]; Fig. 1e, JMS-175-2 19.96 μM
  Normalised V0: 0.8867 and 0.9068 and 0.9342
[2]; Fig. 1e, JMS-175-2 31.4999 μM
  Normalised V0: 0.9307 and 0.9204 and 1.017
[2]; Fig. 1e, JMS-175-2 50.147 μM
  Normalised V0: 0.795 and 0.9622 and 0.9115
[2]; Fig. 1e, JMS-175-2 79.7601 μM
  Normalised V0: 0.6555 and 0.8717 and 0.8624
[3]
  BRISC dimers detected by native MS: BRISC dimers with 4:4:4:4 stoichiometry were detected
[4]
  inhibition of ARISC activity against tetraubiquitin: did not inhibit
